Experimental data published in patent US4889634A, “Dialysate solution containing hydroxypropyl-beta-cyclodextrin and method of using same” (priority 1988, dated 1989).

Columns and labels:
[1] = test system: rats [Crl:CD(SD) BR strain]; test: 14-day intravenous toxicity study in rats; format: in vivo, rat
Experimental: (§1) As part of the toxicological evaluation of HPBCD, control groups of animals were dosed with HPBCD alone.
Two groups (5/sex/group) of rats [Crl:CD(SD) BR strain] were used for this study. Control rats were given 200 mg of salt per kilogram of body weight intravenously administered in a saline control solution comprising 20% salt by weight in water. The saline control was administered every second day for 14 days (i.e. seven injections). The treated rats were given 200 mg of HPBCD per kilogram of body weight intravenously administered (200 mg/kg i.v. HPBCD) via a HPBCD solution containing 20% HPBCD by weight in water on the same injection schedule. […] At the end of the study the animals were necropsied, gross pathology was observed, histopathological samples were prepared and blood was drawn for clinical laboratory measurements.

Cynomolgus monkeys = conditions: cynomolgus monkey, in vivo
Experimental: as §1
Two groups (1/sex/group) of Cynomolgus monkeys were used for this study. Control monkeys were given 200 mg of salt per kilogram of body weight intravenously administered as a saline control solution of 20% by weight in water. The saline control was administered every second day for 14 days (i.e. 7 doses). The treated monkeys were given 200 mg/kg i.v. HPBCD on the same injection schedule. […] At the end of the study the animals were necropsied, gross pathology was observed, histopathology samples were prepared and blood was drawn for clinical laboratory measurements.

[2] = male rats, 200 mg/kg i.v., 14 days

Substance: hydroxypropyl-beta-cyclodextrin [HPBCD]
- Calcium [1, 2]: 9.8 ± 0.31 mg/dL
- Chlorine [1, 2]: 106.0 ± 1.80 mmol/L
- Cholesterol [1, 2]: 33.0 ± 7.10 mg/dL
- Creatinine [1, 2]: 0.8 ± 0.04 mg/dL
- Eosinophils [1, 2]: 0.07 ± 0.05 × 10^3 /mm^3
- Globulin [1, 2]: 3.3 ± 0.20 G/dL
- Glucose (blood) [1, 2]: 94.1 ± 7.43 mg/dL
- Hematocrit [1, 2]: 48.6 ± 1.74%
- Hemoglobin [1, 2]: 14.6 ± 0.51 G/DL
- Ionic phosphate [1, 2]: 9.7 ± 0.34 mg/dL
- Lymphocytes [1, 2]: 7.13 ± 1.08 × 10^3 /mm^3
- Mean corpuscle [1, 2]: 64.0 ± 2.20 fL
- Mean corpuscle hemoglobin [1, 2]: 19.3 ± 0.60 pg
- Mean corpuscle hemoglobin concentrative [1, 2]: 30.0 ± 0.35%
- Monocytes [1, 2]: 0.08 ± 0.01 × 10^3 /mm^3
- Normal blood cells [1, 2]: 0 ± 0.0 /100 white blood cells
- Platelet count [1, 2]: 1020.0 ± 79.5 × 10^3 /mm^3
- Potassium [1, 2]: 4.7 ± 0.15 mmol/L
- Red blood cell [1, 2]: 7.55 ± 0.17 × 10^6 /mm^3
- Segmented neutrophils [1, 2]: 0.61 ± 0.44 × 10^3 /mm^3
- Sodium [1, 2]: 142 ± 1.5 mM
- Total bilirubin [1, 2]: 0.2 ± 0.04 mg/dL
- Total proteins [1, 2]: 6.3 ± 0.18 G/dL
- Triglycerides [1, 2]: 57.0 ± 17.10 mg/dL
- White blood cells [1, 2]: 7.9 ± 1.18 × 10^3 /mm^3
- Number of deaths ([1]; male, 200 mg/kg i.v. every second day, 14 days): 0/5
- Kidney weight to total body weight ratio ([1]; males): 0.9022 Weight Percent of Total Body W
- Adrenals weight to total body weight ratio ([1]; rat, in vivo): 0.0212 Weight Percent of Total Body W
- Clinical laboratory values vs controls ([1]; rat, in vivo): no observed clinically significant differences
- Epididymes weight to total body weight ratio ([1]; rat, in vivo): 0.2635 Weight Percent of Total Body W
- Organ to body ratios between groups ([1]; rat, in vivo): not different between the groups
- Ovaries weight to total body weight ratio ([1]; rat, in vivo): 0.0574 Weight Percent of Total Body W
- Prostate weight to total body weight ratio ([1]; rat, in vivo): 0.2091 Weight Percent of Total Body W
- Testes weight to total body weight ratio ([1]; rat, in vivo): 1.0209 Weight Percent of Total Body W
- Uterus weight to total body weight ratio ([1]; rat, in vivo): 0.3278 Weight Percent of Total Body W
- Alanine amino transferase ([1]; rat, in vivo, iv, 200 mg/kg): 21.0 ± 2.30 IU/L
- Albumin ([1]; rat, in vivo, iv, 200 mg/kg): 3.1 ± 0.08 G/dL
- Alkaline phosphatase ([1]; rat, in vivo, iv, 200 mg/kg): 109.0 ± 16.20 IU/L
- Aspartate amino transferase ([1]; rat, in vivo, iv, 200 mg/kg): 102.0 ± 162.00 IU/L
- Basophils ([1]; rat, in vivo, iv, 200 mg/kg): 0.00 ± 0.00 × 10^3 /mm^3
- Blood urea nitrogen ([1]; rat, in vivo, iv, 200 mg/kg): 13.2 ± 2.52 mg/dL
- Calcium ([1]; rat, in vivo, iv, 200 mg/kg): 10.1 ± 0.82 mg/dL
- Chlorine ([1]; rat, in vivo, iv, 200 mg/kg): 107.0 ± 2.60
- Cholesterol ([1]; rat, in vivo, iv, 200 mg/kg): 52.0 ± 18.60 mg/dL
- Creatinine ([1]; rat, in vivo, iv, 200 mg/kg): 0.8 ± 0.11 mg/dL
- Eosinophils ([1]; rat, in vivo, iv, 200 mg/kg): 0.06 ± 0.04 × 10^3 /mm^3
- Globulin ([1]; rat, in vivo, iv, 200 mg/kg): 3.4 ± 0.26 G/dL
- Glucose (blood) ([1]; rat, in vivo, iv, 200 mg/kg): 100.0 ± 14.07 mg/dL
- Hematocrit ([1]; rat, in vivo, iv, 200 mg/kg): 47.2 ± 5.59%
- Hemoglobin ([1]; rat, in vivo, iv, 200 mg/kg): 13.6 ± 3.06 G/DL
- Ionic phosphate ([1]; rat, in vivo, iv, 200 mg/kg): 8.3 ± 0.82 mg/dL
- Lymphocytes ([1]; rat, in vivo, iv, 200 mg/kg): 6.80 ± 2.42 × 10^3 /mm^3
- Mean corpuscle ([1]; rat, in vivo, iv, 200 mg/kg): 65.0 ± 2.70 fL
- Mean corpuscle hemoglobin ([1]; rat, in vivo, iv, 200 mg/kg): 18.4 ± 2.41 pg
- Monocytes ([1]; rat, in vivo, iv, 200 mg/kg): 0.05 ± 0.08 ×10^3 /mm^3
- Normal blood cells ([1]; rat, in vivo, iv, 200 mg/kg): 0.0 ± 0.00 /100 white blood cells
- Platelet count ([1]; rat, in vivo, iv, 200 mg/kg): 924 ± 395.20 × 10^3 /mm^3
- Potassium ([1]; rat, in vivo, iv, 200 mg/kg): 4.5 ± 0.16 mmol/L
- Red blood cell ([1]; rat, in vivo, iv, 200 mg/kg): 7.32 ± 1.00 × 10^6 /mm^3
- Segmented neutrophils ([1]; rat, in vivo, iv, 200 mg/kg): 0.49 ± 0.22 × 10^3 /mm^3
- Sodium ([1]; rat, in vivo, iv, 200 mg/kg): 141.0 ± 1.10 mM
- Total bilirubin ([1]; rat, in vivo, iv, 200 mg/kg): 0.3 ± 0.05 mg/dL
- Total proteins ([1]; rat, in vivo, iv, 200 mg/kg): 6.5 ± 0.38 G/dL
- Changes in behavior (Cynomolgus monkeys): No changes in behavior were observed
- Changes in daily food consumption (Cynomolgus monkeys): No weight changes were observed (TABLE XIII) or changes in daily food consumption
- Gross pathological changes and histopathological findings (Cynomolgus monkeys): No gross pathological changes and no histopathological findings were observed
- Hematology and clinical chemistry values (Cynomolgus monkeys): No differences were seen
- Weight changes (Cynomolgus monkeys): No weight changes were observed
- Basophils (Cynomolgus monkeys; 200 mg/kg): 0.00 × 10^3 /mm^3
- Immature neutrophils (Cynomolgus monkeys; 200 mg/kg): 0.00 × 10^3 mm^3
- Normal blood cells (Cynomolgus monkeys; 200 mg/kg): 0.00 /100 white blood cells
